Experimental data reported in ChEMBL document CHEMBL4342467, “Discovery of a Novel Dual-Target Inhibitor of ERK1 and ERK5 That Induces Regulated Cell Death to Overcome Compensatory Mechanism in Specific Tumor Types” (J Med Chem, 2020).

Columns and labels:
[1] = target: Mitogen-activated protein kinase 7 (Homo sapiens) (UniProt Q13164); assay: Inhibition of ERK5 (unknown origin) at 1 uM by Z'-Lyte assay relative to control
HL-60 = assay: Antiproliferative activity against human HL60 cells assessed as reduction in cell viability measured after 24 hrs; type: functional, cell-based; settings: HL-60, 24 h
MKN-74 = assay: Antiproliferative activity against human MKN74 cells assessed as reduction in cell viability measured after 24 hrs; type: functional, cell-based; settings: MKN-74, 24 h
[2] = target: Mitogen-activated protein kinase 3 (Homo sapiens) (UniProt P27361); assay: Inhibition of ERK1 (unknown origin) at 1 uM by Z'-Lyte assay relative to control
[3] = target: Mitogen-activated protein kinase 1 (Homo sapiens) (UniProt P28482); assay: Inhibition of ERK2 (unknown origin) at 1 uM by Z'-Lyte assay relative to control
HeLa = assay: Antiproliferative activity against human HeLa cells assessed as reduction in cell viability measured after 24 hrs; type: functional, cell-based

Chain of Mitogen-activated protein kinase 3 (Homo sapiens) (P27361 whole entry): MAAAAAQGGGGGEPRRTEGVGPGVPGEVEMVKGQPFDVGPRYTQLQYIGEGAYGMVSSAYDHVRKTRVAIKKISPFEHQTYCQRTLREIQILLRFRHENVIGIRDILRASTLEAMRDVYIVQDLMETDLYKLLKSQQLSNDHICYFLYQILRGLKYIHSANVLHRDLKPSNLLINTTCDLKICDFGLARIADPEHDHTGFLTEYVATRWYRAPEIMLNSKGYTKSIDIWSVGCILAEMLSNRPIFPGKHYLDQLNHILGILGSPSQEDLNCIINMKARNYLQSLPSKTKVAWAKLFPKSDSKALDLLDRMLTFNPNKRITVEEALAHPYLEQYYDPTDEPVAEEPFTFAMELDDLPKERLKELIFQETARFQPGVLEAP
Chain of Mitogen-activated protein kinase 7 (Homo sapiens) (Q13164 2-816 limits assumed): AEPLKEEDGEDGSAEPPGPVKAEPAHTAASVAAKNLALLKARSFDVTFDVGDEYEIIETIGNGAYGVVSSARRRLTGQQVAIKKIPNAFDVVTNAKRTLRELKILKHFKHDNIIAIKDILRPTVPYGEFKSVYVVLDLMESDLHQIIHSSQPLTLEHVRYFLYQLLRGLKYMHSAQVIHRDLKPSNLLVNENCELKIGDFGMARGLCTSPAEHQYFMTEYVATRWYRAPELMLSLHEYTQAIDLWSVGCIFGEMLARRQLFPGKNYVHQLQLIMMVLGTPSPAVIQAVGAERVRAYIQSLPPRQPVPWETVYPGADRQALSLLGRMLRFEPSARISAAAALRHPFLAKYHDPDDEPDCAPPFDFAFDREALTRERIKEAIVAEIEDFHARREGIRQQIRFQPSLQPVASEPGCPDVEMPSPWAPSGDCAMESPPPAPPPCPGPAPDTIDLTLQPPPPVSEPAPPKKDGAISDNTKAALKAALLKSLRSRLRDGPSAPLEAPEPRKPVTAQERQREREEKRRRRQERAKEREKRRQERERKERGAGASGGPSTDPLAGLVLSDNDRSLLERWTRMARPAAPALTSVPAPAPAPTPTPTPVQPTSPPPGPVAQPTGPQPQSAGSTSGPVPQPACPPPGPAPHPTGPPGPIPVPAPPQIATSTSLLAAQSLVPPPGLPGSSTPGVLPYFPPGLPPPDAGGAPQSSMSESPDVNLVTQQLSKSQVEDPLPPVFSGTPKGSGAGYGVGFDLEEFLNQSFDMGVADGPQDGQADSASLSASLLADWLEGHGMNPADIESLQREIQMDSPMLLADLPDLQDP
Chain of Mitogen-activated protein kinase 1 (Homo sapiens) (P28482 whole entry): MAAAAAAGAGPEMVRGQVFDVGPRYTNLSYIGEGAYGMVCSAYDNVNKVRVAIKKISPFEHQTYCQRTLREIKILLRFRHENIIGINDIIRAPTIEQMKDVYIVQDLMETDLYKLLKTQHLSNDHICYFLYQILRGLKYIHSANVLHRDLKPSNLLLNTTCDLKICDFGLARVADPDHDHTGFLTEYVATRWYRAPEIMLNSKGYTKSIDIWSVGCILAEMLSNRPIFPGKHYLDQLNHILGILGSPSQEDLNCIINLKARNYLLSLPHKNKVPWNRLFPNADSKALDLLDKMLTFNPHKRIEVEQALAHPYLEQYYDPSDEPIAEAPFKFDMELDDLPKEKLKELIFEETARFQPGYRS

Structure (SMILES) | inhibition [1] [%] | IC50 (HL-60) [µM] | IC50 (MKN-74) [µM] | inhibition [2] [%] | inhibition [3] [%] | IC50 (HeLa) [µM]
NC(=O)c1c(NC(=O)c2ccc(C(F)(F)F)cc2)sc2c1CCN(C(=S)Nc1cc(C(F)(F)F)cc(C(F)(F)F)c1)C2 | 54.2 | 16.3 | 13.8 | 79.4 | 66 | 49
Cc1ccccc1NC(=S)N1CCc2c(sc(NC(=O)c3ccccc3Br)c2C(N)=O)C1 | 46.7 | > 50 | > 50 | 65.1 | 60.8 | > 50
NC(=O)c1c(NC(=O)c2ccccc2Cl)sc2c1CCN(Cc1ccccc1)C2 | 63.7 | 12 | 14.5 | 60.1 | 62.9 | 38.4
NC(=O)c1c(NC(=O)c2ccccc2C(F)(F)F)sc2c1CCN(C(=S)Nc1ccccc1F)C2 | 86.5 | 23.5 | 19.6 | 77.2 | 81.6 | > 50
COc1ccccc1NC(=S)N1CCc2c(sc(NC(=O)c3ccccc3Cl)c2C(N)=O)C1 | 53.7 | 40.9 | 35.2 | 71.3 | 70.6 | > 50
NC(=O)c1c(NC(=O)c2cccc([N+](=O)[O-])c2)sc2c1CCN(C(=S)Nc1ccccc1Cl)C2 | 70.7 | 7.04 | 8.85 | 64.2 | 58.5 | 40.3
NC(=O)c1c(NC(=O)c2ccccc2Cl)sc2c1CCNC2 | 62.7 | 18.6 | 28.7 | 61.5 | 64.9 | 45
NC(=O)c1c(NC(=O)c2cccc([N+](=O)[O-])c2)sc2c1CCN(Cc1ccc(Cl)cc1Cl)C2 | 77.9 | 19.8 | 16.5 | 67.2 | 65.3 | 33
CSc1ccccc1NC(=S)N1CCc2c(sc(NC(=O)c3ccccc3Cl)c2C(N)=O)C1 | 52.6 | 14.6 | 13.8 | 69.5 | 64.6 | 43.6
NC(=O)c1c(NC(=O)c2ccccc2Cl)sc2c1CCN(Cc1ccc([N+](=O)[O-])cc1)C2 | 65 | 11.4 | 31.5 | 66.2 | 63.1 | 46.1
NC(=O)c1c(NC(=O)c2ccccc2)sc2c1CCN(C(=S)Nc1ccccc1)C2 | 61.4 | > 50 | > 50 | 65.8 | 66.3 | > 50
NC(=O)c1c(NC(=O)c2ccccc2F)sc2c1CCN(C(=S)Nc1cc(C(F)(F)F)cc(C(F)(F)F)c1)C2 | 77.3 | 17.9 | 13.3 | 76.6 | 68.6 | 28
NC(=O)c1c(NC(=O)c2cccc([N+](=O)[O-])c2)sc2c1CCN(Cc1c(Cl)cccc1Cl)C2 | 45.2 | 18.4 | 13.5 | 31.6 | 29.3 | 46.1
NC(=O)c1c(NC(=O)c2ccccc2F)sc2c1CCN(Cc1cccc(Cl)c1)C2 | 42.5 | 19.8 | 23.3 | 49.3 | 48.8 | 49.5
NC(=O)c1c(NC(=O)c2ccccc2Cl)sc2c1CCN(Cc1ccccc1Cl)C2 | 65.1 | 2.9 | 4.43 | 61.4 | 65.2 | 27.5
NC(=O)c1c(NC(=O)c2ccccc2C(F)(F)F)sc2c1CCN(C(=S)Nc1ccccc1Br)C2 | 73.3 | 25.5 | 23.9 | 82.5 | 85.5 | > 50
NC(=O)c1c(NC(=O)c2ccccc2Cl)sc2c1CCN(C(=S)Nc1cccnc1)C2 | 34.9 | 33.9 | 38.6 | 41.9 | 45.4 | > 50
NC(=O)c1c(NC(=O)c2ccccc2I)sc2c1CCN(C(=S)Nc1ccccc1Br)C2 | 85.5 | 18.9 | 22.4 | 82 | 80 | > 50
NC(=O)c1c(NC(=O)c2ccccc2Cl)sc2c1CCN(C(=S)Nc1ccccc1)C2 | 59.5 | 5.94 | 15.6 | 85.4 | 76.5 | 46.7
COc1ccccc1NC(=S)N1CCc2c(sc(NC(=O)c3ccccc3C(F)(F)F)c2C(N)=O)C1 | 61.7 | > 50 | 34.5 | 77.6 | 74.9 | > 50

Other lines, results leading:

inhibition [1] [%] | IC50 (HL-60) [µM] | IC50 (MKN-74) [µM] | inhibition [2] [%] | inhibition [3] [%] | IC50 (HeLa) [µM] | Structure (SMILES)
48.3 | 25.1 | 47.4 | 64.9 | 62.8 | 47 | Cc1ccccc1NC(=S)N1CCc2c(sc(NC(=O)c3ccccc3C(F)(F)F)c2C(N)=O)C1
78.6 | 27.4 | 24.3 | 79.3 | 72.1 | 39.6 | NC(=O)c1c(NC(=O)c2ccccc2Br)sc2c1CCN(C(=S)Nc1ccccc1C(F)(F)F)C2
55.7 | 15.7 | 19.6 | 78.1 | 68.7 | 36.4 | COc1ccc(NC(=S)N2CCc3c(sc(NC(=O)c4ccccc4Cl)c3C(N)=O)C2)cc1
49.1 | 30.5 | 6.55 | 67.2 | 63.4 | 34.7 | CSc1ccccc1C(=O)Nc1sc2c(c1C(N)=O)CCN(C(=S)Nc1ccccc1Cl)C2
82.7 | 17.7 | 24.4 | 82.7 | 85 | 27.2 | NC(=O)c1c(NC(=O)c2ccccc2Cl)sc2c1CCN(C(=O)Nc1c(Cl)cccc1Cl)C2
54.9 | 32.7 | 49.6 | 65 | 62.4 | > 50 | NC(=O)c1c(NC(=O)c2ccccc2F)sc2c1CCN(C(=O)Nc1ccccc1Cl)C2
32 | > 50 | > 50 | 44.7 | 48.7 | > 50 | COc1ccccc1NC(=S)N1CCc2c(sc(NC(=O)c3ccccc3OC)c2C(N)=O)C1
55.3 | > 50 | > 50 | 60.6 | 53.4 | > 50 | Cc1ccccc1CN1CCc2c(sc(NC(=O)c3ccccc3Cl)c2C(N)=O)C1
88.5 | 9.09 | 10.8 | 90.9 | 86.9 | 24.6 | NC(=O)c1c(NC(=O)c2ccccc2Cl)sc2c1CCN(C(=S)Nc1ccccc1Br)C2
57.4 | 7.59 | 7.09 | 80.5 | 54.4 | > 50 | NC(=O)c1c(NC(=O)c2ccccc2Cl)sc2c1CCN(C(=S)Nc1ccc(C(F)(F)F)cc1)C2
65.7 | > 50 | > 50 | 70.1 | 68.7 | > 50 | NC(=O)c1c(NC(=O)c2ccccc2Br)sc2c1CCN(C(=S)Nc1ccccc1F)C2
61.9 | 4.85 | 4.74 | 57.8 | 78.1 | 28.8 | NC(=O)c1c(NC(=O)c2ccccc2Cl)sc2c1CCN(Cc1c(Cl)cccc1Cl)C2
70.8 | 11.8 | 14.9 | 77.4 | 80.1 | 17.1 | Cc1ccc(C(=O)Nc2sc3c(c2C(N)=O)CCN(C(=S)Nc2cc(C(F)(F)F)cc(C(F)(F)F)c2)C3)cc1
56.8 | > 50 | 26.9 | 72.2 | 76.8 | > 50 | NC(=O)c1c(NC(=O)c2ccc(C(F)(F)F)cc2)sc2c1CCN(Cc1ccccc1F)C2
72.5 | 13.4 | 20.7 | 82.8 | 81.3 | 30.8 | NC(=O)c1c(NC(=O)c2ccccc2Cl)sc2c1CCN(C(=S)Nc1cccc3ccccc13)C2
57.5 | 36.1 | 16.4 | 75.6 | 79 | 44 | NC(=O)c1c(NC(=O)c2ccc(C(F)(F)F)cc2)sc2c1CCN(C(=S)Nc1ccccc1Cl)C2
80.5 | 14.6 | 12.9 | 87.7 | 89.7 | 46.9 | NC(=O)c1c(NC(=O)c2ccccc2Br)sc2c1CCN(C(=S)Nc1ccccc1Cl)C2
42.8 | > 50 | 41.8 | 56.1 | 59.6 | > 50 | COc1ccccc1NC(=S)N1CCc2c(sc(NC(=O)c3ccccc3I)c2C(N)=O)C1
52.3 | 19.9 | 25.5 | 32.2 | 53.7 | > 50 | Cc1ccc(C(=O)Nc2sc3c(c2C(N)=O)CCN(Cc2ccc(Cl)cc2Cl)C3)cc1
43.3 | > 50 | > 50 | 60.5 | 68.5 | > 50 | CCCCCC(=O)Nc1sc2c(c1C(N)=O)CCN(C(=S)NCCCC)C2
